Results reported in patent US20120039954A1, “METHOD OF TREATING INSOMNIA” (SOMNUS THERAPEUTICS, INC., priority 2008, published 2012).

Experiment: Drug plasma levels in the Example 9 trial
Conditions: 10 mg single oral dose
From the text: Non-elderly adults were enrolled in a cross-over, double-blind trial. […] Drug plasma levels were obtained at the same times.

CCN(C(C)=O)c1cccc(-c2ccnc3c(C#N)cnn23)c1 [zaleplon, N-[3-(3-cyanopyrazole[1,5-a]pyrimidin-7-yl)phenyl]-N-ethylacetamide]
Time post-dose at which drug plasma levels peaked: 1.5 h
